# Measurements: publication PMC7536072, “Molecular and functional characterization of somatostatin-type signalling in a deuterostome invertebrate” (Open Biology, 2020)
# “Also recorded” adds a separate entry of the source. Like-named read-outs stand apart in the source and are kept apart here. Bridges are numbered along the chain shown (N, C = ends). Where no end group is shown, it is not given here.
# Tests used:
# [1] = tested on: cardiac stomach preparations from A. rubens; experiment: in vitro relaxation of cardiac stomach preparations; design: species or system Asterias rubens; settings: n = 6
# Experimental: Synthetic ArSS2 ([…], with a disulfide bridge between the cysteine residues) was custom synthesized (Peptide Protein Research Ltd, Fareham, UK) to enable testing of its pharmacological effects on in vitro preparations of organs/muscles from A. rubens. ArSS2 was tested for its in vitro effects on the contractility of tube foot, apical muscle and cardiac stomach preparations from at least six different specimens of A. rubens. Individual tube foot preparations were dissected from starfish arms with their corresponding ampulla intact. Then cotton ligatures were tied around the ambulacral body wall and the tube foot disc and then the external epithelium of the tube foot was scraped off using a blunt scalpel blade to facilitate penetration of peptides when tested in vitro, as described previously. Apical muscle preparations were dissected from the aboral body wall with approximately 1 cm strips of apical muscle tied at each end with cotton ligatures. Cardiac stomach preparations were dissected as described previously and then were tied at the aboral side of the cardiac stomach and around the oesophagus with cotton ligatures. The dissected preparations were tied to a fixed metal hook orally and to a high-grade isotonic transducer (MLT0015; ADInstruments Ltd; Oxford, UK) aborally, suspended in a 20 ml aerated organ bath containing artificial seawater at approximately 11°C. The transducer was connected via a bridge amplifier (FE221 Bridge Amp, ADInstruments Ltd, Oxford, UK) to data acquisition hardware (PowerLab 2/36, ADInstruments Ltd, Oxford, UK). Data collected from PowerLab were visualized as traces and analysed using LabChart (v. 8.0.7) software installed on a laptop computer (Lenovo E540, Windows 7 Professional).
# To examine the effects of ArSS2 on tube foot and cardiac stomach preparations, 10^−6 M acetylcholine (ACh) or artificial seawater (ASW) containing 30 mM added KCl was used to induce contraction of these preparations, respectively. Once a stable baseline contracted state was achieved, synthetic ArSS2 was added into the organ bath to sequentially achieve final concentrations in the range of 10^−10 to 10^−6 M. For these experiments, the contracting effect of 10^−6 M ACh or ASW containing 30 mM added KCl was defined as 100% and the relaxing effects of ArSS2 were then calculated as a percentage reversal of the 100% contracted state.
# Experiments were performed where the effects of ArSS2, S2 and asterotocin (at 10^−7 and 10^−6 M) on cardiac stomach preparations (n = 6) were compared. For these experiments, the effect of 10^−7 or 10^−6 M S2 was defined as 100% and the effect of asterotocin or ArSS2 was calculated as a % of the effect of S2. To determine if there were significant differences in magnitude of the relaxing effects of the three peptides on cardiac stomach preparations, data were analysed statistically using a two-tailed Student's t-test in Prism 6.
# [2] = tested on: cardiac stomach of A. rubens; experiment: in vivo cardiac stomach eversion after injection into the perivisceral coelom; design: species or system Asterias rubens; settings: 10 µl 10^−3 M into perivisceral coelom, n = 10
# Experimental: When starfish (A. rubens) feed, the cardiac stomach is relaxed and everted out of the mouth over the digestible soft tissues of prey (e.g. mussels). […] Therefore, because ArSS2 causes relaxation of cardiac stomach preparations in vitro, we investigated if ArSS2 also triggers cardiac stomach eversion when injected in vivo. Firstly, 15 medium-sized starfish were starved for one week to normalize their physiological status. A Hamilton […] 50 μl syringe (Sigma-Aldrich; Gillingham, UK) was used to inject 10 μl 1 mM ArSS2, or 10 μl 1 mM asterotocin (positive control) or 10 μl water (negative control) into the […] coelom of starfish. ArSS2 was tested on five individuals firstly and then the next day, asterotocin was tested on the same batch of five individuals. For another five individuals, asterotocin was tested first and then ArSS2 was tested on the following day. The remaining five individuals were injected with water as a control. Thus, both ArSS2 and asterotocin were tested on ten starfish. For each starfish, the test agent was injected via two sites in the dorsal body wall of the arms proximal to the junctions with the central disc region. Care was taken to inject test agents into the […] coelom and not into the cardiac stomach.
# [3] = tested on: tube foot preparations from A. rubens; settings: ref [67]; cited from earlier work
# [4] = tested on: cardiac stomach preparations from A. rubens; settings: cited from earlier work
# Text: Likewise, ArSS2 caused dose-dependent relaxation of cardiac stomach preparations at concentrations between ... || ArSS2 is widely expressed in the digestive system of A. rubens, including the peristomial membrane, cardiac stomach, pyloric stomach, pyloric duct, and pyloric caeca. In the cardiac stomach, ArSSP2 transcripts are detected in cells located in the mucosa layer and ArSS2-immunoreactivity is present in the adjacent basi-epithelial nerve plexus. Consistent with this expression of ArSS2 in the cardiac stomach, ArSS2 causes dose-dependent relaxation of cardiac stomach preparations.
# [5] = tested on: apical muscle preparations from A. rubens; settings: ref [67]; cited from earlier work
# [6] = tested on: cardiac stomach of A. rubens; settings: cited from earlier work
# Text: When starfish (A. rubens) feed, the cardiac stomach is relaxed and everted out of the mouth over the digestible soft tissues of prey (e.g. mussels). […] Therefore, because ArSS2 causes relaxation of cardiac stomach preparations in vitro, we investigated if ArSS2 also triggers cardiac stomach eversion when injected in vivo. Firstly, 15 medium-sized starfish were starved for one week to norm ... || Asterias rubens feeds by everting its cardiac stomach through a narrow oral opening (mouth) and over the digestible parts of its prey, and for this to be accomplished, the cardiac stomach must be in a relaxed state. Neuropeptides that cause cardiac stomach in vitro are therefore potential mediators of cardiac stomach eversion in vivo. […] Therefore, here we investigated if ArSS2 also triggers cardiac stomach ever ... || The in vitro relaxing effect of ArSS2 on the cardiac stomach of A. rubens is of interest from a physiological/behavioural perspective because relaxation of the cardiac stomach is required for the extraoral feeding behaviour of starfish where it is everted out of the mouth and over the digestible soft tissue of prey such as mussels.
# ArSSR1 = experiment: GFP-aequorin luminescence receptor activation assay, CHO-K1 cells, ArSSR1 + Gα16; type: cell-based, Asterias rubens; settings: ArSSR1
# ArSSR2 = experiment: GFP-aequorin luminescence receptor activation assay, CHO-K1 cells, ArSSR2 + Gα16; type: cell-based, Asterias rubens; settings: ArSSR2
# ArSSR3 = experiment: GFP-aequorin luminescence receptor activation assay, CHO-K1 cells, ArSSR3 + Gα16; type: cell-based, Asterias rubens; settings: ArSSR3
# ArSSR3, sequence (as listed by the source): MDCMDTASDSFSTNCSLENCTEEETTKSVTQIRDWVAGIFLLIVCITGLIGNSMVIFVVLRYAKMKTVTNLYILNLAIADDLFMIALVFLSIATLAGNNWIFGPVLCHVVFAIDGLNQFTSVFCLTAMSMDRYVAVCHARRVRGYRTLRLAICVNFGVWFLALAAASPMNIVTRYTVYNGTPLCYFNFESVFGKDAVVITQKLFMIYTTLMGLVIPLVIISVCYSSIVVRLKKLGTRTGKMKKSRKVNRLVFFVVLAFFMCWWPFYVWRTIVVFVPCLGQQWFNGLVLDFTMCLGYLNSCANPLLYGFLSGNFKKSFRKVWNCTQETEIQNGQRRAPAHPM
# [7] = tested on: CHO-K1 cells transfected with an empty pcDNA3.1(+) vector; experiment: luminescence control assay, CHO-K1 cells transfected with empty vector; type: cell-based, Chinese hamster; settings: 10^-12 to 10^-5 M (figure S12), 0.1 % Triton X-100 = 100%
# Experimental: In order to characterize the candidate SS-type receptors, a G-protein-dependent receptor activation assay was employed. Chinese hamster ovary (CHO)-K1 cells stably overexpressing the calcium-sensitive bioluminescent reporter GFP-aequorin fusion protein (G5A) were used as a heterologous expression system. Plasmids containing A. rubens SS-type receptor cDNAs were co-transfected with the promiscuous human Gα16, which is widely used for receptor deorphanization assays. […] After 3 h incubation, a fixed volume of cells was injected sequentially into each well containing different concentrations of peptides using a FLUOstar Omega Plate Reader (BMG LABTECH, Ortenberg, Germany). Luminescence values were recorded over a 35 s period after injection. The total luminescence of each well over the 35 s period was calculated and normalized to the maximum value obtained in each experiment (100% activation) and to the value obtained with the vehicle media (0% activation). […] EC50 values were calculated from dose–response curves using Prism 6. The luminescence responses triggered by 10^−5 M ArSS1, 10^−5 M ArSS2 and vehicle media were analysed by one-way ANOVA using Bonferroni's multiple comparisons post hoc test in Prism 6. […]
# [8] = 10^−5 M, vs BSA media (control) and, for ArSS2, vs ArSS1, one-way ANOVA, Bonferroni
substance,measurement,setting,value
"CLVQDCPEG-NH2 (disulfide 1-6 (inferred)) [asterotocin, reference compound]",relaxing effect compared with S2,"[1]; 10^−6 M, two-tailed Student's t-test p = 0.0255",significantly larger than the effect S2
same,relaxing effect compared with ArSS2,"[1]; 10^−6 M, two-tailed Student's t-test p = 0.0483",significantly larger
same,magnitude of cardiac stomach relaxing action relative to S2,"[1]; 10^−7 M, KCl-contracted, mean",3.5 times the effect of S2
same,relaxing effect compared with S2,"[1]; 10^−7 M, two-tailed Student's t-test p = 0.0055",significantly larger than the effect of S2
same,relaxing effect compared with ArSS2,"[1]; 10^−7 M, two-tailed Student's t-test p = 0.0250",significantly larger
same,"mean maximal eversion, area of everted cardiac stomach",[2]; 10 min recording,~125 % of the area of the central disc region
same,incidence of cardiac stomach eversion,[2],all of the animals
same,time of mean maximal eversion after injection,[2],approximately 9 min
same,relaxation of tube foot preparations,[3],caused relaxation of cardiac stomach and apical muscle preparations but not tube feet
same,cardiac stomach relaxant activity,"[4]; ref [64],[67]",act as cardiac stomach relaxants
same,effectiveness as cardiac stomach relaxant compared with S2,[4]; ref [67],much more effective as a cardiac stomach relaxant than S2
same,relaxation of cardiac stomach preparations,[4]; ref [67],caused relaxation of cardiac stomach and apical muscle preparations but not tube feet
same,relaxation of apical muscle preparations,[5],caused relaxation of cardiac stomach and apical muscle preparations but not tube feet
same,cardiac stomach eversion,"[6]; 100 µl 10^−3 M into perivisceral coelom, ref [67]",complete eversion of the cardiac stomach
same,cardiac stomach eversion,"[6]; injected in vivo, ref [66],[67]",induce cardiac stomach eversion when injected in vivo
same,effectiveness and potency in triggering cardiac stomach eversion compared with S2,[6]; ref [67],much more effective and potent than S2
"KCIGRFQPFSMPC (disulfide 2-13 (inferred)) [ArSS1, 13-residue SS-type neuropeptide of Asterias rubens derived from ArSSP1 (…)]",luminescence compared with control,ArSSR1; [8],not significantly different
same,triggering of luminescence,ArSSR1; 10^−21 to 10^−4 M,did not trigger luminescence
same,luminescence compared with control,ArSSR2; [8],not significantly different
same,triggering of luminescence,ArSSR2; 10^−21 to 10^−4 M,did not trigger luminescence
same,luminescence compared with control,ArSSR3; [8],not significantly different
same,triggering of luminescence,ArSSR3; 10^−21 to 10^−4 M,did not trigger luminescence
same,luminescence response in cells with empty vector,[7],do not trigger luminscence; also recorded: Neither ArSS1 nor ArSS2 elicited responses
